Organism: Rattus norvegicus
Test: DrugMatrix - Regimen: Daily Repeat
Assay type: toxicity, organism-based, Sprague-Dawley
Set-up: regimen Daily Repeat, gender Male, age 6-8 weeks
Conditions: in vivo, po, 0 mg/kg, route oral GAVAGE, dose level Control, […]; for ABSOLUTE BASOPHIL / ABSOLUTE EOSINOPHIL / ABSOLUTE LYMPHOCYTE / ABSOLUTE MONOCYTE / ABSOLUTE SEGMENTED NEUTROPHIL / BASOPHIL / EOSINOPHIL / ERYTHROCYTE COUNT / HEMATOCRIT / HEMOGLOBIN / LEUKOCYTE COUNT / LYMPHOCYTE / MEAN CORPUSCULAR HEMOGLOBIN / MEAN CORPUSCULAR HEMOGLOBIN CONCENTRATION / MEAN CORPUSCULAR VOLUME / MONOCYTE / NEUTROPHIL / NUCLEATED RED BLOOD CELLS / PLATELET COUNT: tissue Blood; for ALANINE AMINOTRANSFERASE / ALBUMIN / ALKALINE PHOSPHATASE / ASPARTATE AMINOTRANSFERASE / BLOOD UREA NITROGEN / CARBON DIOXIDE / CHLORIDE / CHOLESTEROL / CREATINE PHOSPHOKINASE / CREATININE / GLUCOSE / LACTATE DEHYDROGENASE / LIPASE / PHOSPHORUS / POTASSIUM / SODIUM / TOTAL BILIRUBIN / TOTAL PROTEIN / URIC ACID: tissue Plasma

CC(C)(Oc1ccc(CCNC(=O)c2ccc(Cl)cc2)cc1)C(=O)O [BEZAFIBRATE]
ABSOLUTE BASOPHIL (72 h, time 3 day): 0 CELLS/uL
ABSOLUTE EOSINOPHIL (72 h, time 3 day): 37.33 CELLS/uL
ABSOLUTE LYMPHOCYTE (72 h, time 3 day): 6295.33 CELLS/uL
ABSOLUTE MONOCYTE (72 h, time 3 day): 122.17 CELLS/uL
ABSOLUTE SEGMENTED NEUTROPHIL (72 h, time 3 day): 861.83 CELLS/uL
BASOPHIL (72 h, time 3 day): 0%
EOSINOPHIL (72 h, time 3 day): 0.5%
ERYTHROCYTE COUNT (72 h, time 3 day): 5.2 x10E6/uL
HEMATOCRIT (72 h, time 3 day): 32.58%
HEMOGLOBIN (72 h, time 3 day): 12.95 G/DL
LEUKOCYTE COUNT (72 h, time 3 day): 7.32 x10E3/uL
LYMPHOCYTE (72 h, time 3 day): 86%
MEAN CORPUSCULAR HEMOGLOBIN (72 h, time 3 day): 24.93 pg
MEAN CORPUSCULAR HEMOGLOBIN CONCENTRATION (72 h, time 3 day): 39.77 G/DL
MEAN CORPUSCULAR VOLUME (72 h, time 3 day): 62.65 fL
MONOCYTE (72 h, time 3 day): 1.67%
NEUTROPHIL (72 h, time 3 day): 11.83%
NUCLEATED RED BLOOD CELLS (72 h, time 3 day): 0 /100WBC
PLATELET COUNT (72 h, time 3 day): 1029 x10E3/uL
ALANINE AMINOTRANSFERASE (72 h, time 3 day): 63.67 u/L
ALBUMIN (72 h, time 3 day): 4.12 G/DL
ALKALINE PHOSPHATASE (72 h, time 3 day): 329.83 u/L
ASPARTATE AMINOTRANSFERASE (72 h, time 3 day): 77.67 u/L
BLOOD UREA NITROGEN (72 h, time 3 day): 18 mg/dL
CARBON DIOXIDE (72 h, time 3 day): 29.67 mmol/L
CHLORIDE (72 h, time 3 day): 102.67 MEQ/L
CHOLESTEROL (72 h, time 3 day): 64.5 mg/dL
CREATINE PHOSPHOKINASE (72 h, time 3 day): 178.67 u/L
CREATININE (72 h, time 3 day): 0.18 mg/dL
GLUCOSE (72 h, time 3 day): 163.83 mg/dL
LACTATE DEHYDROGENASE (72 h, time 3 day): 75.83 u/L
LIPASE (72 h, time 3 day): 10 u/L
PHOSPHORUS (72 h, time 3 day): 8.28 mg/dL
POTASSIUM (72 h, time 3 day): 4.79 MEQ/L
SODIUM (72 h, time 3 day): 142.22 MEQ/L
TOTAL BILIRUBIN (72 h, time 3 day): 0.22 mg/dL
TOTAL PROTEIN (72 h, time 3 day): 5.78 G/DL
URIC ACID (72 h, time 3 day): 0.87 mg/dL
BASOPHIL (120 h, time 5 day): 0.32%
EOSINOPHIL (120 h, time 5 day): 0.58%
ERYTHROCYTE COUNT (120 h, time 5 day): 7.26 x10E6/uL
HEMATOCRIT (120 h, time 5 day): 46.94%
HEMOGLOBIN (120 h, time 5 day): 14.9 G/DL
LEUKOCYTE COUNT (120 h, time 5 day): 8.69 x10E3/uL
LYMPHOCYTE (120 h, time 5 day): 81.52%
MEAN CORPUSCULAR HEMOGLOBIN (120 h, time 5 day): 20.58 pg
MEAN CORPUSCULAR HEMOGLOBIN CONCENTRATION (120 h, time 5 day): 31.8 G/DL
MEAN CORPUSCULAR VOLUME (120 h, time 5 day): 64.68 fL
MONOCYTE (120 h, time 5 day): 2.16%
NEUTROPHIL (120 h, time 5 day): 13.88%
PLATELET COUNT (120 h, time 5 day): 1531.2 x10E3/uL
ALANINE AMINOTRANSFERASE (120 h, time 5 day): 33.2 u/L
ALBUMIN (120 h, time 5 day): 3.74 G/DL
ALKALINE PHOSPHATASE (120 h, time 5 day): 318 u/L
ASPARTATE AMINOTRANSFERASE (120 h, time 5 day): 78.6 u/L
BLOOD UREA NITROGEN (120 h, time 5 day): 6 mg/dL
CHLORIDE (120 h, time 5 day): 108.4 MEQ/L
CHOLESTEROL (120 h, time 5 day): 63 mg/dL
CREATINE PHOSPHOKINASE (120 h, time 5 day): 251 u/L
CREATININE (120 h, time 5 day): 0.18 mg/dL
GLUCOSE (120 h, time 5 day): 125.6 mg/dL
PHOSPHORUS (120 h, time 5 day): 12.06 mg/dL
POTASSIUM (120 h, time 5 day): 5.92 MEQ/L
SODIUM (120 h, time 5 day): 146.8 MEQ/L
TOTAL BILIRUBIN (120 h, time 5 day): 0.16 mg/dL
TOTAL PROTEIN (120 h, time 5 day): 6.06 G/DL
ABSOLUTE BASOPHIL (time 7 day): 0 CELLS/uL
ABSOLUTE EOSINOPHIL (time 7 day): 19 CELLS/uL
ABSOLUTE LYMPHOCYTE (time 7 day): 7803.5 CELLS/uL
ABSOLUTE MONOCYTE (time 7 day): 117.83 CELLS/uL
ABSOLUTE SEGMENTED NEUTROPHIL (time 7 day): 1093 CELLS/uL
BASOPHIL (time 7 day): 0%
EOSINOPHIL (time 7 day): 0.17%
ERYTHROCYTE COUNT (time 7 day): 5.84 x10E6/uL
HEMATOCRIT (time 7 day): 35.75%
HEMOGLOBIN (time 7 day): 13.87 G/DL
LEUKOCYTE COUNT (time 7 day): 9.03 x10E3/uL
LYMPHOCYTE (time 7 day): 87.17%
MEAN CORPUSCULAR HEMOGLOBIN (time 7 day): 23.78 pg
MEAN CORPUSCULAR HEMOGLOBIN CONCENTRATION (time 7 day): 38.8 G/DL
MEAN CORPUSCULAR VOLUME (time 7 day): 61.25 fL
MONOCYTE (time 7 day): 1.17%
NEUTROPHIL (time 7 day): 11.5%
NUCLEATED RED BLOOD CELLS (time 7 day): 0 /100WBC
PLATELET COUNT (time 7 day): 1098.67 x10E3/uL
BASOPHIL (time 28 day): 0.42%
EOSINOPHIL (time 28 day): 0.58%
ERYTHROCYTE COUNT (time 28 day): 8.06 x10E6/uL
HEMATOCRIT (time 28 day): 48.44%
HEMOGLOBIN (time 28 day): 16.34 G/DL
LEUKOCYTE COUNT (time 28 day): 13.04 x10E3/uL
LYMPHOCYTE (time 28 day): 85.12%
MEAN CORPUSCULAR HEMOGLOBIN (time 28 day): 20.26 pg
MEAN CORPUSCULAR HEMOGLOBIN CONCENTRATION (time 28 day): 33.74 G/DL
MEAN CORPUSCULAR VOLUME (time 28 day): 60.1 fL
MONOCYTE (time 28 day): 1.44%
NEUTROPHIL (time 28 day): 11.28%
PLATELET COUNT (time 28 day): 1226 x10E3/uL
ALANINE AMINOTRANSFERASE (time 7 day): 66 u/L
ALBUMIN (time 7 day): 4.3 G/DL
ALKALINE PHOSPHATASE (time 7 day): 291.83 u/L
ASPARTATE AMINOTRANSFERASE (time 7 day): 80.5 u/L
BLOOD UREA NITROGEN (time 7 day): 15.67 mg/dL
CARBON DIOXIDE (time 7 day): 30 mmol/L
CHLORIDE (time 7 day): 101.67 MEQ/L
CHOLESTEROL (time 7 day): 69.67 mg/dL
CREATINE PHOSPHOKINASE (time 7 day): 363.33 u/L
CREATININE (time 7 day): 0.25 mg/dL
GLUCOSE (time 7 day): 146.5 mg/dL
LACTATE DEHYDROGENASE (time 7 day): 219.67 u/L
LIPASE (time 7 day): 11.33 u/L
PHOSPHORUS (time 7 day): 10.08 mg/dL
POTASSIUM (time 7 day): 5.22 MEQ/L
SODIUM (time 7 day): 144.67 MEQ/L
TOTAL BILIRUBIN (time 7 day): 0.12 mg/dL
TOTAL PROTEIN (time 7 day): 6.33 G/DL
URIC ACID (time 7 day): 0.75 mg/dL
ALANINE AMINOTRANSFERASE (time 28 day): 28.6 u/L
ALBUMIN (time 28 day): 3.94 G/DL
ALKALINE PHOSPHATASE (time 28 day): 254.6 u/L
ASPARTATE AMINOTRANSFERASE (time 28 day): 67.8 u/L
BLOOD UREA NITROGEN (time 28 day): 10.4 mg/dL
CHLORIDE (time 28 day): 104.6 MEQ/L
CHOLESTEROL (time 28 day): 57.6 mg/dL
CREATINE PHOSPHOKINASE (time 28 day): 224.8 u/L
CREATININE (time 28 day): 0.4 mg/dL
GLUCOSE (time 28 day): 140.6 mg/dL
PHOSPHORUS (time 28 day): 10.66 mg/dL
POTASSIUM (time 28 day): 6.58 MEQ/L
SODIUM (time 28 day): 148.6 MEQ/L
TOTAL BILIRUBIN (time 28 day): 0.24 mg/dL
TOTAL PROTEIN (time 28 day): 6.64 G/DL

Source: ChEMBL document CHEMBL3885881, “DrugMatrix”
